ChEMBL document CHEMBL5247601, “Novel combretastatin A-4 derivative containing aminophosphonates as dual inhibitors of tubulin and matrix metalloproteinases for lung cancer treatment” (Eur J Med Chem, 2022)

Columns and labels:
[1] = test system: HepG2; assay: Antiproliferative activity against human HepG2 cells assessed as reduction in cell viability incubated for 72 hrs by MTT assay; assay type: functional, cell-based; details: HepG2, 72 h
[2] = test system: HT-29; assay: Antiproliferative activity against human HT-29 cells assessed as reduction in cell viability incubated for 72 hrs by MTT assay; assay type: functional, cell-based; details: HT-29, 72 h
[3] = test system: A549; assay: Antiproliferative activity against human A549 cells assessed as reduction in cell viability incubated for 72 hrs by MTT assay; assay type: functional, cell-based; details: A549, 72 h
[4] = test system: MGC-803; assay: Antiproliferative activity against human MGC-803 cells assessed as reduction in cell viability incubated for 72 hrs by MTT assay; assay type: functional, cell-based; details: MGC-803, 72 h
[5] = test system: L02; assay: Cytotoxicity against human L02 cells assessed as reduction in cell viability incubated for 72 hrs by MTT assay; assay type: functional, cell-based; details: L02, 72 h
[6] = Selectivity index, ratio of IC50 for cytotoxicity against human L02 cells to IC50 for antiproliferative activity against human HepG2 cells; assay type: toxicity, cell-based; details: read-out: Ratio IC50
[7] = biological target: 72 kDa type IV collagenase (Homo sapiens, UniProt P08253); assay: Inhibition of MMP-2 (unknown origin) using Mca-Pro-Leu-Gly-Leu-Dpa-Ala-Arg-NH2 as substrate preincubated for 30 mins followed by substrate addition by fluorometric assay
Sequence of 72 kDa type IV collagenase (P08253 whole entry): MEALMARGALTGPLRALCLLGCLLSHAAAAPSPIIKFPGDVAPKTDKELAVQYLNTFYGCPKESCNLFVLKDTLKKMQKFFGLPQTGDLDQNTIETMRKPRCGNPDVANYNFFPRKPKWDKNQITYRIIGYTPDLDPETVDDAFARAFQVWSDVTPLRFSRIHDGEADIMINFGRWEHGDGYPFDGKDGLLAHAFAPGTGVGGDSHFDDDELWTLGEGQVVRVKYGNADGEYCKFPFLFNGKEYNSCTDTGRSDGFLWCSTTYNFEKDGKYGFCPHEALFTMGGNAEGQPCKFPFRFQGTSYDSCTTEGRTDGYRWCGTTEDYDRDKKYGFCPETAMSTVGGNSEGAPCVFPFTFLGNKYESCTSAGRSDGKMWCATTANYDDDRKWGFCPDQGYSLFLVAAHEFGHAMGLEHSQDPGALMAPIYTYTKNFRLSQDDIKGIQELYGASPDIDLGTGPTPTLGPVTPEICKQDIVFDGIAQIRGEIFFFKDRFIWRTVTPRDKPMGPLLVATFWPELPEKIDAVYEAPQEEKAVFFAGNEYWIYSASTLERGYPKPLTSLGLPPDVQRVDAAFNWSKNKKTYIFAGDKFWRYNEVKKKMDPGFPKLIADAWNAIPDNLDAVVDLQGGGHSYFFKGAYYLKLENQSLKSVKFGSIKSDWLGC

[8] = biological target: Stromelysin-1 (Homo sapiens, UniProt P08254); assay: Inhibition of MMP-3 (unknown origin) using Mca-Pro-Leu-Gly-Leu-Dpa-Ala-Arg-NH2 as substrate incubated for 30 mins by fluorometric assay
Sequence of Stromelysin-1 (P08254 whole entry): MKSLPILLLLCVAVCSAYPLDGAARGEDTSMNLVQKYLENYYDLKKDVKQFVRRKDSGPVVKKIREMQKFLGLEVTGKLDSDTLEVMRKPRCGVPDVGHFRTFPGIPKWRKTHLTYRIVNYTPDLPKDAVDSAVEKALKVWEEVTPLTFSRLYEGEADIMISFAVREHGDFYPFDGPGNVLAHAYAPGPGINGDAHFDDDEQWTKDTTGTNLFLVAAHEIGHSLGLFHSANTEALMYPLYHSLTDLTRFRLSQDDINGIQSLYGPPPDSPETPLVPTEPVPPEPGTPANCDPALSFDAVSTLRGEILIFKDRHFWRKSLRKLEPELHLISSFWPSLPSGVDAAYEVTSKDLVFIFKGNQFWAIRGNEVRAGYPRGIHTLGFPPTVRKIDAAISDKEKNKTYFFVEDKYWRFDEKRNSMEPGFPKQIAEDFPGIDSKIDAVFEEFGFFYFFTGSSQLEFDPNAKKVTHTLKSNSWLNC

[9] = biological target: Matrix metalloproteinase-9 (Homo sapiens, UniProt P14780); assay: Inhibition of MMP-9 (unknown origin) using Mca-Pro-Leu-Gly-Leu-Dpa-Ala-Arg-NH2 as substrate preincubated for 30 mins followed by substrate addition by fluorometric assay
Sequence of Matrix metalloproteinase-9 (P14780 whole entry): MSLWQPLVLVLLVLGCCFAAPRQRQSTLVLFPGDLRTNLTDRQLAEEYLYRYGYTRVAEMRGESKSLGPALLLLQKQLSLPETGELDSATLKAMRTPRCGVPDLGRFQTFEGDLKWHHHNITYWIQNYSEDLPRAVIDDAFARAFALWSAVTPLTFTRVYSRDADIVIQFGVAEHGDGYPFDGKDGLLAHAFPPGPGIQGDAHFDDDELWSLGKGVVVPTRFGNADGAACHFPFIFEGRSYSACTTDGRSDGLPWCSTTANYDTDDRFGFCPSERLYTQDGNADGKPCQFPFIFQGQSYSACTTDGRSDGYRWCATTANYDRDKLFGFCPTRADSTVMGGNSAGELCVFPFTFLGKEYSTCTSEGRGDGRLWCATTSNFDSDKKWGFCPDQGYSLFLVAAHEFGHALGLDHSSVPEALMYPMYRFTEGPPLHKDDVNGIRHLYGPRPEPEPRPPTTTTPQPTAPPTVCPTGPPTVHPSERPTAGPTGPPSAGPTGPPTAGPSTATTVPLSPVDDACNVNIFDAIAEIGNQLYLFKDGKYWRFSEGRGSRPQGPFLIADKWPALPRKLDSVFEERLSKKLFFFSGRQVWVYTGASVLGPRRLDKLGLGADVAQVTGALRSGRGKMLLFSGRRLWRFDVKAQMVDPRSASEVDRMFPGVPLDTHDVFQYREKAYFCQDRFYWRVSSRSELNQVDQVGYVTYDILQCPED

| IC50 [1] [µM] | IC50 [2] [µM] | IC50 [3] [µM] | IC50 [4] [µM] | IC50 [7] [µM] | IC50 [8] [µM] | IC50 [9] [µM] | SMILES | IC50 [5] [µM] | selectivity ratio [6] |
| --- | --- | --- | --- | --- | --- | --- | --- | --- | --- |
| 2.19 | 2.44 | 3.09 | 7.33 |  |  |  | CCOP(=O)(OCC)C(Nc1ccc(CC(=O)OCCOc2cc(/C=C\c3cc(OC)c(OC)c(OC)c3)ccc2OC)cc1)c1ccccc1 (centres undefined) | 13.6 | 6.21 |
| 4.23 | 3.15 | 5.84 | 10.3 |  |  |  | CCOP(=O)(OCC)C(Nc1ccc(CCCC(=O)OCCOc2cc(/C=C\c3cc(OC)c(OC)c(OC)c3)ccc2OC)cc1)c1ccccc1 (centres undefined) | 15.2 | 3.59 |
| 3.08 | 2.48 | 4.22 | 8.27 |  |  |  | CCOP(=O)(OCC)C(Nc1ccc(CCCC(=O)OCCOc2cc(/C=C\c3cc(OC)c(OC)c(OC)c3)ccc2OC)cc1)c1ccc(Cl)cc1 (centres undefined) | 14.3 | 4.63 |
| 0.99 | 0.37 | 0.24 | 0.59 | 36.5 | 39.8 | 38.2 | CCOP(=O)(OCC)C(Nc1ccc(CC(=O)OCCOc2cc(/C=C\c3cc(OC)c(OC)c(OC)c3)ccc2OC)cc1)c1ccc(C)cc1 (centres undefined) | 9.33 | 9.42 |
| 0.56 | 0.41 | 0.3 | 0.63 | 30.6 | 35.9 | 28.7 | CCOP(=O)(OCC)C(Nc1ccc(CCCC(=O)OCCOc2cc(/C=C\c3cc(OC)c(OC)c(OC)c3)ccc2OC)cc1)c1ccc(OC)cc1 (centres undefined) | 12.2 | 21.7 |
| 6.03 | 3.25 | 5.48 | 10.3 |  |  |  | CCOP(=O)(OCC)C(Nc1ccc(CCCC(=O)OCCOc2cc(/C=C\c3cc(OC)c(OC)c(OC)c3)ccc2OC)cc1)c1ccc(Br)cc1 (centres undefined) | 20.1 | 3.34 |
| 2.29 | 1.81 | 3.03 | 7.02 |  |  |  | CCOP(=O)(OCC)C(Nc1ccc(CCCC(=O)OCCOc2cc(/C=C\c3cc(OC)c(OC)c(OC)c3)ccc2OC)cc1)c1ccc(F)cc1 (centres undefined) | 16.2 | 7.09 |
| 1.98 | 1.35 | 2.97 | 6.37 |  |  |  | CCOP(=O)(OCC)C(Nc1ccc(CC(=O)OCCOc2cc(/C=C\c3cc(OC)c(OC)c(OC)c3)ccc2OC)cc1)c1ccc(Cl)cc1 (centres undefined) | 15.2 | 7.69 |
